Data reported in paper PMC9486168, “Protein-protein interaction-based high throughput screening for adenylyl cyclase 1 inhibitors: Design, implementation, and discovery of a novel chemotype” (Frontiers in Pharmacology, 2022).
“And” between values parts separate entries of the source, which are not always exact repeats. Equal values may be shown once.

Key:
AC1-C1b/CaM = biological target: T1, AC1-C1b/CaM (Homo sapiens, UniProt P0DP23); assay: AC1-C1b/CaM fluorescence polarization (FP) assay; type: binding; settings: for IC50: 100 nM AC1-C1b, 100 nM GST-CaM, 95% CI in brackets; for Ki: Cheng-Prusoff from FP IC50 and Kd; for AC1-CaM FP % inhib: relative to 100 μM CDZ (100% inhibition), highest concentration tested
T1 construct: made in house; host or cells: E. coli BL21-CodonPlus (DE3)-RIPL

AC8-Nt/CaM = biological target: T2, AC8-Nt/CaM (Homo sapiens, UniProt P0DP23); assay: AC8-Nt/CaM FP counterscreen assay; type: binding; settings: for Ki / Ki (μM) AC8 NT: Cheng-Prusoff from FP IC50 and Kd, n/i given where none; for Ki ratio (AC8 NT/AC1): ratio >1: more potent in AC1/CaM FP;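 as to all read-outs here: fluorescence polarization of AC peptide binding GST-CaM in HEPES buffer with CaCl2, compound preincubated with CaM 30 min, peptide read after 2 h at room temperature in dark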
T2 construct: made in house; host or cells: E. coli BL21-CodonPlus (DE3)-RIPL

AC8-C2b/CaM = biological target: T3, AC8-C2b/CaM (Homo sapiens, UniProt P0DP23); assay: AC8-C2b/CaM FP counterscreen assay; type: binding; settings: for Ki / Ki (μM) AC8 C2b: Cheng-Prusoff from FP IC50 and Kd, n/i given where none; for Ki ratio (AC8-C2b/AC1): ratio >1: more potent in AC1/CaM FP;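 as to all read-outs here: fluorescence polarization of AC peptide binding to GST-CaM in HEPES buffer with KCl and 50 µM CaCl2, compound preincubated 30 min with GST-CaM, DMSO and calmidazolium as controls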
T3 construct: made in house; host or cells: E. coli BL21-CodonPlus (DE3)-RIPL

AC1/CaM PPI = biological target: T4, AC1/CaM PPI (Homo sapiens, UniProt P0DP23); assay: AC1/CaM NanoBiT assay in HEK293T cells; type: cell-based; settings: HEK293T, thapsigargin-stimulated, AUC; for IC50: read-out: Nanobit: AC1-CaM IC50 (μM ± SEM)
T4 construct: human AC1 (hAC1) residues 1–1,118 were cloned; The hCaM residues 1–149, residues 1–1,248 of rat AC8 (rAC8); expressed in transfected cells; host or cells: HEK293T, transient transfection

AC8/CaM PPI = biological target: T5, AC8/CaM PPI (Homo sapiens, UniProt P0DP23); assay: AC8/CaM NanoBiT assay in HEK293T cells; type: cell-based, rat; settings: for IC50: HEK293T, thapsigargin-stimulated, AUC, read-out: Nanobit: AC8-CaM IC50 (μM ± SEM)
T5 construct: confirmed as an AC1/AC8 non-selective hit against full-length AC1- and AC8-CaM in the NanoBiT assay; The hCaM residues 1–149, residues 1–1,248 of rat AC8 (rAC8); expressed in transfected cells; host or cells: HEK293T, transient transfection

[1] = CellTiter-Glo 2.0 cell viability assay; type: cell-based; settings: human, HEK293T cells, pH 7.4; at the compound's AC1/CaM NanoBiT IC50 concentration; read-out: % Viable Cells at AC1 IC50;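 also: luminescence read-out after 30 min compound exposure at 37 °C in HEPES-buffered HBSS, scaled to vehicle-treated cells as 100% and cell-free buffer wells as 0%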
AC1 = biological target: T6, AC1 (Homo sapiens, UniProt Q08828); assay: cAMP accumulation assay, AC1-HEK Δ3/6 KO cells; type: cell-based; settings: for IC50: initial examination, 10,000 cells per well, 3 μM A23187, 1 h RT, read-out: AC1 IC50 ± SEM
T6 construct: expressed in transfected cells
T6 sequence (Q08828 whole entry): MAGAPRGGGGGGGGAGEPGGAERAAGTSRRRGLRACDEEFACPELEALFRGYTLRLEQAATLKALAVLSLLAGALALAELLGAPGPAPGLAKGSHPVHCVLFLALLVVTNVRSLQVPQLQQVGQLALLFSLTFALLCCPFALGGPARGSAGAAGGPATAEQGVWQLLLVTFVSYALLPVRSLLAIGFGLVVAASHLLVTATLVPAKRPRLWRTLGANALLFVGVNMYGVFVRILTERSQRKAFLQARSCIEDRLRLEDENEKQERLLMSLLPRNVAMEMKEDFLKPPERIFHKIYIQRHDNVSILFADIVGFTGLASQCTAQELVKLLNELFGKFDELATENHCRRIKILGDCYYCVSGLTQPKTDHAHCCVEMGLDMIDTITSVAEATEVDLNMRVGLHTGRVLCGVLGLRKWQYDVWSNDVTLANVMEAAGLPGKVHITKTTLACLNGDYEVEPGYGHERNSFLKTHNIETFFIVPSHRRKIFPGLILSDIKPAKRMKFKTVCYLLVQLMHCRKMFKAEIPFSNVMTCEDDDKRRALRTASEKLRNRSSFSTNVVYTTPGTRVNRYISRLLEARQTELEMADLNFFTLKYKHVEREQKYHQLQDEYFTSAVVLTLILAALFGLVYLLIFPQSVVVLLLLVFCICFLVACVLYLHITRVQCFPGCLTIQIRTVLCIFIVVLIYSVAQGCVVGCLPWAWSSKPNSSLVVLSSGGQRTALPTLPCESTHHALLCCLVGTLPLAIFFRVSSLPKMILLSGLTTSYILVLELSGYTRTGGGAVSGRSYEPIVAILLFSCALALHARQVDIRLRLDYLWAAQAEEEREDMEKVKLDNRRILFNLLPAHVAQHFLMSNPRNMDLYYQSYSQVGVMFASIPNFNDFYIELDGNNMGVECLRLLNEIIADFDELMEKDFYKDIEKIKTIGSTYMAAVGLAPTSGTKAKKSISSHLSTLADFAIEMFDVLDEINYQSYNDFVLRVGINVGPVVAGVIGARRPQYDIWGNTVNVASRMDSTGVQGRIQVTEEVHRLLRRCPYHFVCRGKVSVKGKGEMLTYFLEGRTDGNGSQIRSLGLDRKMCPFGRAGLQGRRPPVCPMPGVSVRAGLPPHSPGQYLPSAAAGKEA
Procedure: Cells were then incubated for 1 h at 37°C and 5% CO2. Cells were then treated with varying concentrations of inhibitors for 30 min, followed by treatment with calcium ionophore A23187 (3 μM) in 500 μM 3-isobutyl-1-methylxanthine (IBMX), a phosphodiesterase inhibitor, for 1 h at RT (Sigma Aldrich, St. Louis, MO). Finally, Cisbio HTRF detection reagents were added and incubated for 1–24 h at RT. Plates were read according to manufacturer’s protocol on an HTRF-compatible plate reader at 620 and 665 nm cAMP concentrations were interpolated from a cAMP standard curve. […] For cytotoxicity assays, compounds were tested at 30 μM and this protocol was used with the exception of detection reagents; CellTiter-Glo 2.0 reagent was used according to manufacturer’s protocol and luminescence was read on the Synergy Neo2 plate reader. Data are normalized to cells treated with vehicle (100%) or 2% tween (0%) and are represented as the percent of vehicle, from the average of three independent experiments (N = 3).

| IC50 (AC1-C1b/CaM) | Ki (AC1-C1b/CaM) | Ki (AC8-Nt/CaM) | Ki (AC8-C2b/CaM) | IC50 (AC1/CaM PPI) | IC50 (AC8/CaM PPI) | AC1-CaM FP % inhib (AC1-C1b/CaM) | Ki ratio (AC8 NT/AC1) (AC8-Nt/CaM) | Ki ratio (AC8-C2b/AC1) (AC8-C2b/CaM) | inhibition of AC1 activity (efficacy) (AC1; initial characterization of hits, data not shown) | IC50 (AC1) | Ki (μM) AC8 NT (AC8-Nt/CaM) | Ki (μM) AC8 C2b (AC8-C2b/CaM) | Nanobit: AC1-CaM IC50 (μM ± SEM) (AC1/CaM PPI) | SMILES | IC90 (AC1-C1b/CaM) | viability at 30 min [1] | fold selective for AC8 over AC1 in the NanoBiT assay (AC8/CaM PPI; AC8/CaM vs AC1/CaM NanoBiT) |
| --- | --- | --- | --- | --- | --- | --- | --- | --- | --- | --- | --- | --- | --- | --- | --- | --- | --- |
| 33 µM | 7.8 µM | 52.1 µM | 23.8 µM | 1.7 ± 1.17 µM | 4.16 ± 1.15 µM | 47% |  |  | ~75% | 4.09 ± 2.41 µM |  |  |  | CCc1oc2ccccc2c1C(=O)c1cc(Br)c(O)c(Br)c1 [Compound 12, Benzbromarone] |  | 90% |  |
| 58.2 µM | 13.8 µM |  |  | 84 ± 1.7 µM |  |  | AC1 Selective | AC1 Selective |  |  | n/i | n/i |  | CCC12CN3CC(CC)(CN(C1)C31C(=O)N(C)c3ccc(Br)cc31)C2=O (centres unmarked) [Compound 14] |  | 100% |  |
| 75.4 µM | 17.8 µM |  |  |  |  | 53% | AC1 Selective | AC1 Selective |  |  | n/i | n/i | No Inhibition | CN1CCN(CCNC(=O)c2cc3c(=O)n(C)c(=O)n(C)c3s2)CC1 [Compound 17] |  |  |  |
| 43.4 µM | 10.3 µM |  |  |  |  |  | AC1 Selective | AC1 Selective |  |  | n/i | n/i | No Inhibition | Cc1ccc(S(=O)(=O)Nc2cc(N3CCCS3(=O)=O)ccc2C)cc1 [Compound 19] |  |  |  |
| 43 µM | 10.2 µM | 5.9 µM | 4.5 µM | 63 ± 1.34 µM | 70.3 ± 1.13 µM | ~70% | 0.58 | 0.44 |  | 66.3 ± 33.3 µM |  |  |  | CNC(=O)C1=C(Nc2ccc(N(C)C)cc2)c2ccccc2S1(=O)=O [Compound 20] |  | 100% |  |

The remaining lines, values behind:

| SMILES | IC50 (AC1-C1b/CaM) | Ki (AC1-C1b/CaM) | Ki (AC8-Nt/CaM) | Ki (AC8-C2b/CaM) | IC50 (AC1/CaM PPI) | IC50 (AC8/CaM PPI) | AC1-CaM FP % inhib (AC1-C1b/CaM) | Ki ratio (AC8 NT/AC1) (AC8-Nt/CaM) | Ki ratio (AC8-C2b/AC1) (AC8-C2b/CaM) | inhibition of AC1 activity (efficacy) (AC1; initial characterization of hits, data not shown) | IC50 (AC1) | Ki (μM) AC8 NT (AC8-Nt/CaM) | Ki (μM) AC8 C2b (AC8-C2b/CaM) | Nanobit: AC1-CaM IC50 (μM ± SEM) (AC1/CaM PPI) | IC90 (AC1-C1b/CaM) | viability at 30 min [1] | fold selective for AC8 over AC1 in the NanoBiT assay (AC8/CaM PPI; AC8/CaM vs AC1/CaM NanoBiT) |
| --- | --- | --- | --- | --- | --- | --- | --- | --- | --- | --- | --- | --- | --- | --- | --- | --- | --- |
| Clc1ccc(C(c2ccc(Cl)cc2)n2cc[n+](CC(OCc3ccc(Cl)cc3Cl)c3ccc(Cl)cc3Cl)c2)cc1 (centres unmarked) [CDZ, Calmidazolium] | 15.1 µM and ~15 µM |  |  |  |  |  |  |  |  |  |  |  |  |  | ~100 µM |  |  |
| CN(C)c1ccc2nc3ccc(=[N+](C)C)cc-3sc2c1 [Compound 2, Methylene Blue] | 2.18 µM | 0.51 µM | 3.2 µM | 0.82 µM | 98 ± 1.14 µM | 80.3 ± 1.14 µM |  |  |  |  |  |  |  |  |  | 86% |  |
| CCCCCCCCCCCCCCCC[N+](C)(C)CCN(Cc1ccc(OC)cc1)c1ncccn1 [Compound 4, Thonzonium] | 4.14 µM | 1 µM | 2.7 µM | 3.6 µM | 29.1 ± 1.2 µM | 18.5 ± 1.26 µM | 94% | 2.7 | 3.7 |  |  |  |  |  |  | 100% |  |
| CCC(C)CC(C)CCCCCCCCC(=O)NC1CC(O)C(NCCN)NC(=O)C2C(O)CCN2C(=O)C(C(O)CCN)NC(=O)C(C(O)C(O)c2ccc(O)cc2)NC(=O)C2CC(O)CN2C(=O)C(C(C)O)NC1=O (centres unmarked) [Compound 5, Caspofungin Acetate] | 12.7 µM | 3 µM | 6.3 µM | 6.2 µM |  |  | 20% | 2 and 2.1 | 2 and 2.1 |  |  |  |  |  |  |  |  |
| CC1=C(CCC(=O)O)c2cc3[nH]c(cc4nc(cc5[nH]c(cc1n2)c(C)c5C(C)O)C(C)=C4C(C)O)c(C)c3CCC(=O)O (centres unmarked) [Compound 6, Hematoporphyrin] | 14.7 µM | 3.5 µM | 61.7 µM | 10.1 µM | 38.4 ± 1.17 µM | 11.6 ± 1.24 µM | 131% | 17.8 | 2.9 |  |  |  |  |  |  | 95% | 2- to 4 fold |
| CN(C(=O)CN(CCO)CC(=O)N(C)C(C)(C)Cc1ccccc1)C(C)(C)Cc1ccccc1 [Compound 8, Oxetacaine] | 20 µM | 4.7 µM | 38 µM | 33.5 µM | 40 ± 1.15 µM | 34.6 ± 1.32 µM | 38% | 8.0 | 7.1 |  |  |  |  |  |  | 93.3% |  |
| CCNC(=O)c1cc2c(=O)n(C)c(=O)n(C)c2s1 [Compound 16] | 24.2 µM | 5.7 µM |  |  |  |  |  | AC1 Selective | AC1 Selective |  |  | n/i | n/i | No Inhibition |  |  |  |
